{"source": "paper PMC10141844", "about": "(Archives of Virology, 2023)", "key": {"HEV-1 RdRp": {"target": "T1, HEV-1 RdRp (Hepatitis E virus genotype 1, UniProt P33424)", "T1 sequence (P33424 1199-1693 limits assumed)": "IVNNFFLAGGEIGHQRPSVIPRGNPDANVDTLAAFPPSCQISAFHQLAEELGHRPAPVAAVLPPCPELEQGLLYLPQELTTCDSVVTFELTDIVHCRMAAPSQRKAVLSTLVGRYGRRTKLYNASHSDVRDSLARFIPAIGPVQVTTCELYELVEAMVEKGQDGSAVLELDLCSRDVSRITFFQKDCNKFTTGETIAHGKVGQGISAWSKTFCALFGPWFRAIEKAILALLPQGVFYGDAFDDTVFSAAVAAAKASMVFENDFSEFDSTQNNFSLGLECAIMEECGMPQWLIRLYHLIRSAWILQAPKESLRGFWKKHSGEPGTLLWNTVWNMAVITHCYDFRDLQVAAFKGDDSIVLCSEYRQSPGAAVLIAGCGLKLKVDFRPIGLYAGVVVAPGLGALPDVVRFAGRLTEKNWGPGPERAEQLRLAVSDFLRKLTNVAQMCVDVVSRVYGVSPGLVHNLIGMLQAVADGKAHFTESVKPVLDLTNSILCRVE", "experiment": "Colorimetric RdRp polymerase assay", "format": "biochemical"}, "HEV-1 [1]": {"tested_on": "HEV-1", "experiment": "ORF2 protein expression by immunofluorescence assay and western blot", "format": "cell-based, Hepatitis E virus", "details": "IFA and western blot, 72 h and 96 h post-transfection, RBV 3.1 µM, ART 23.4 µM"}, "HEV-1 helicase": {"target": "T2, HEV-1 helicase (Hepatitis E virus genotype 1, UniProt P33424)", "T2 sequence (P33424 960-1204)": "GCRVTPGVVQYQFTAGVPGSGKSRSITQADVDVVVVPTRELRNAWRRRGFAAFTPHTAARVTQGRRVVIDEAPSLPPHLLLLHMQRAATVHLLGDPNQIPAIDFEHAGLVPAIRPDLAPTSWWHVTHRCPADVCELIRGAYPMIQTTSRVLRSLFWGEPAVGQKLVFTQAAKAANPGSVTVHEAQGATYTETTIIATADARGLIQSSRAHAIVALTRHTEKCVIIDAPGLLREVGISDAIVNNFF", "experiment": "Colorimetric ATPase assay of recombinant helicase", "format": "biochemical"}, "[2]": {"details": "oral administration; cited from earlier work"}, "[3]": {"tested_on": "S10-3 human hepatoma cells", "experiment": "Cell viability / MTT assay", "format": "cell-based", "details": "highest concentration tolerated by S10-3 cells, MTT, 120 h"}, "[4]": {"experiment": "Cell viability / MTT assay", "format": "cell-based, human", "details": "human, S10-3 human hepatoma cells"}, "HEV-1 [5]": {"tested_on": "HEV-1", "experiment": "HEV-1 subgenomic replicon Renilla luciferase assay in S10-3 cells", "format": "cell-based, Hepatitis E virus", "details": "for HEV-1 inhibition (%): subgenomic replicon, at MNTD: RBV 3.12 µM, CQ 0.06 µM, HCQ 0.78 µM, ART 23.43 µM, 48 h"}, "[6]": {"details": "in silico toxicity studies, cited from earlier work"}}, "note": "Several values for one entry are separate records, joined by “and”; a condition that tells them apart may be missing. Equal values may be shown once. Entries after “also recorded” stand apart in the source; their conditions may differ."}
{"molecule": "C[C@H]1[C@H](OC(=O)CCC(=O)O)O[C@@H]2O[C@@]3(C)CC[C@H]4[C@H](C)CC[C@@H]1[C@@]24OO3", "note": "[ART, artesunate]", "values": [{"measurement": "RdRp polymerase activity inhibition (%)", "setting": "HEV-1 RdRp; 4.8 µM ART", "result": 38, "unit": "%"}, {"measurement": "RdRp polymerase activity inhibition (%)", "setting": "HEV-1 RdRp; 78 µM ART", "result": 40, "unit": "%"}, {"measurement": "ORF2 protein levels", "setting": "HEV-1 [1]", "result": "decreased ORF2 levels; also recorded: reduced ORF2 expression significantly"}, {"measurement": "Reversibility of helicase inhibition", "setting": "HEV-1 helicase", "result": "reversible"}, {"measurement": "Helicase ATPase activity inhibition (%)", "setting": "HEV-1 helicase; 4.8 µM ART, 100 µM ATP", "result": 23, "unit": "%"}, {"measurement": "Helicase ATPase activity inhibition (%)", "setting": "HEV-1 helicase; 78 µM ART, 100 µM ATP", "result": "55% and ~ 55%"}, {"measurement": "Mode of inhibition of helicase ATPase", "setting": "HEV-1 helicase; ATP pretreatment assay", "result": "competitive inhibitor"}, {"measurement": "Mode of inhibition of helicase ATPase", "setting": "HEV-1 helicase; enzyme pretreated with ART", "result": "noncompetitive inhibitor"}, {"measurement": "ATPase activity (%)", "setting": "HEV-1 helicase; helicase pre-incubated with 19.5 µM ART 30 min, 50 µM ATP", "result": 62, "unit": "%"}, {"measurement": "ATPase activity (%)", "setting": "HEV-1 helicase; helicase pre-incubated with 19.5 µM ART 30 min, 100 µM ATP", "result": 75, "unit": "%"}, {"measurement": "ATPase activity (%)", "setting": "HEV-1 helicase; helicase pre-incubated with ATP 30 min before 19.5 µM ART, 50 µM ATP", "result": "~ 79%"}, {"measurement": "ATPase activity (%)", "setting": "HEV-1 helicase; helicase pre-incubated with ATP 30 min before 19.5 µM ART, 100 µM ATP", "result": 86, "unit": "%"}, {"measurement": "Elimination half-life", "setting": "[2]", "result": "21 to 72", "unit": "min"}, {"measurement": "Tmax", "setting": "[2]", "result": "less than one hour"}, {"measurement": "MNTD, maximum nontoxic dose", "setting": "[3]", "result": 23.43, "unit": "µM"}, {"measurement": "CC50 at 120 h", "setting": "[4]", "result": "189 ± 14.1", "unit": "µM"}, {"measurement": "TI for HEV-1, therapeutic index (CC50/EC50)", "setting": "HEV-1 [5]; CC50/EC50", "result": 9.68}, {"measurement": "HEV-1 inhibition (%)", "setting": "HEV-1 [5]", "result": "> 50", "unit": "%"}, {"measurement": "Mutagenic, tumorigenic and hepatotoxic potential", "setting": "[6]; if used in high doses for a long time", "result": "moderately mutagenic, tumorigenic, and hepatotoxic"}, {"measurement": "Risk of reproductive or developmental toxicity", "setting": "[6]", "result": "no risk"}]}
{"molecule": "NC(=O)c1ncn([C@@H]2O[C@H](CO)[C@@H](O)[C@H]2O)n1", "note": "[RBV, ribavirin]", "values": [{"measurement": "ORF2 protein levels", "setting": "HEV-1 [1]", "result": "decreased ORF2 levels; also recorded: reduced ORF2 expression significantly"}, {"measurement": "MNTD, maximum nontoxic dose", "setting": "[3]", "result": 3.12, "unit": "µM"}, {"measurement": "CC50 at 120 h", "setting": "[4]", "result": "39 ± 5.9", "unit": "µM"}]}
{"molecule": "CCN(CC)CCCC(C)Nc1ccnc2cc(Cl)ccc12", "note": "(stereo not shown) [CQ, chloroquine]", "values": [{"measurement": "MNTD, maximum nontoxic dose", "setting": "[3]", "result": 0.06, "unit": "µM"}, {"measurement": "CC50 at 120 h", "setting": "[4]", "result": "4.77 ± 0.74", "unit": "µM"}, {"measurement": "HEV-1 inhibition (%)", "setting": "HEV-1 [5]", "result": "23 ± 2", "unit": "%"}]}
{"molecule": "CCN(CCO)CCCC(C)Nc1ccnc2cc(Cl)ccc12", "note": "(stereo not shown) [HCQ, hydroxychloroquine]", "values": [{"measurement": "MNTD, maximum nontoxic dose", "setting": "[3]", "result": 0.78, "unit": "µM"}]}
{"molecule": "NC(=O)c1ncn([C@@H]2O[C@H](CO[P@@](=O)(O)O[P@](=O)(O)OP(=O)(O)O)[C@@H](O)[C@H]2O)n1", "note": "[RTP, Ribavirin triphosphate]", "values": [{"measurement": "inhibition at 28 µM", "setting": "HEV-1 RdRp; read-out: RdRp polymerase activity inhibition (%), 28 µM RTP (maximum)", "result": 28, "unit": "%"}, {"measurement": "Helicase ATPase activity inhibition (%)", "setting": "HEV-1 helicase; 3.5 µM RTP, 100 µM ATP", "result": 22, "unit": "%"}, {"measurement": "MNTD, maximum nontoxic dose", "setting": "[3]", "result": 7.8, "unit": "µM"}, {"measurement": "CC50 at 120 h", "setting": "[4]", "result": "169 ± 1.6", "unit": "µM"}]}
